These results are taken from ChEMBL document CHEMBL1201862, “PubChem BioAssay data set” (2004).

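Results reflect a 48-hour exposure of cells in 96-well plates to compound at five concentrations. At the GI50, growth is halved.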 Active and inactive are the calls of the source. Cut-off read from the data, not from the text of the source: active = GI50 up to about 1.1 µM and inactive = higher. A value given as a limit tells only on which side of the number the result lay.

Some test systems named below: UO-31; NCI-H23; ACHN; LOX IMVI; TK-10; CCRF-CEM; HT-29; PC-3; HCT-116; SK-MEL-28; HOP-62; RPMI-8226; NCI-H522; IGROV-1; Hs-578T; RXF 393; HOP-92; UACC-257; OVCAR-4; HL-60.
Test in all cases: NCI-60 cell line screen, 48 h

`NC(=O)NNc1nc2ccccc2c(=O)n1NC(=O)C(=O)Nc1ccc(Cl)cc1Cl`: the GI50 with UO-31, with NCI-H23, in the assay on ACHN, in the assay on LOX IMVI, in the assay with TK-10 and in the assay with CCRF-CEM was > 100 µM (inactive) in each case. Besides, the GI50 in the assay on HT-29, in the assay on PC-3, with HCT-116, in the assay on SK-MEL-28, in the assay on HOP-62 and in the assay on RPMI-8226 was > 100 µM (inactive) each time. Further, the GI50 is > 100 µM (inactive) with NCI-H522; 64 µM (inactive) with IGROV-1; > 100 µM (inactive) in the assay with Hs-578T; > 100 µM (inactive) with RXF 393; > 100 µM (inactive) in the assay on HOP-92; > 100 µM (inactive) in the assay on UACC-257. Further, the GI50 with OVCAR-4 was > 100 µM (inactive).

Turning to `S=C(Nc1cccc(Cl)c1)Nc1ccccn1`, the GI50 in the assay on UO-31, in the assay with LOX IMVI, in the assay on TK-10, with CCRF-CEM, with HT-29 and with HL-60 was > 100 µM (inactive) throughout. Moreover, the GI50 with PC-3, in the assay with HCT-116, in the assay on SK-MEL-28, with HOP-62, in the assay on RPMI-8226 and in the assay on IGROV-1 was > 100 µM (inactive) throughout. For the same molecule, the GI50 in the assay with Hs-578T, with RXF 393, with UACC-257 and with OVCAR-4 was > 100 µM (inactive) in each case.

Take `CCN1/C(=C/C#C/C(C)=C\c2sc3ccc(Cl)cc3[n+]2CC)Sc2ccc(Cl)cc21`: the GI50 is 3.85 µM (inactive) in the assay on UO-31; 3.38 µM (inactive) in the assay with ACHN; 3.31 µM (inactive) with LOX IMVI; 4.28 µM (inactive) with TK-10; 0.389 µM (active) with CCRF-CEM; 3.08 µM (inactive) in the assay on HT-29. For the same molecule, the GI50 was 2.33 µM (inactive) with PC-3; 2.57 µM (inactive) in the assay on HCT-116; 9.77 µM (inactive) in the assay with SK-MEL-28; 4.88 µM (inactive) with HOP-62; 1.67 µM (inactive) in the assay on RPMI-8226; 1.56 µM (inactive) with NCI-H522. Also, the GI50 with IGROV-1 was 4 µM (inactive); in the assay on Hs-578T, 4.72 µM (inactive); in the assay on RXF 393 it was 5.6 µM (inactive); in the assay with HOP-92 it was 1.58 µM (inactive); in the assay on UACC-257, 3.34 µM (inactive); in the assay with OVCAR-4, 6.53 µM (inactive).

Take `Cn1c(S)nc(C(N)=O)c1N`: the GI50 with UO-31, in the assay on NCI-H23, in the assay on ACHN, in the assay with LOX IMVI, with TK-10 and with CCRF-CEM was > 100 µM (inactive) each time. Further, the GI50 in the assay with HT-29, with HL-60, in the assay on PC-3, with SK-MEL-28, with HOP-62 and in the assay on RPMI-8226 was > 100 µM (inactive) in each case. Further, the GI50 in the assay with NCI-H522, in the assay with IGROV-1, with Hs-578T, in the assay on RXF 393 and in the assay with OVCAR-4 was > 100 µM (inactive) each time.

On to `Cn1c(-c2cccs2)cc(-c2ccsc2)c1-c1cccs1`, for which the GI50 is > 100 µM (inactive) in the assay with UO-31; 45.9 µM (inactive) in the assay with NCI-H23; 61.1 µM (inactive) in the assay on ACHN; > 100 µM (inactive) with TK-10; > 100 µM (inactive) with CCRF-CEM; 55.3 µM (inactive) with HT-29. The GI50 in the assay on PC-3 is > 100 µM (inactive); with HCT-116 it was 16.3 µM (inactive); in the assay with SK-MEL-28, 99.1 µM (inactive); in the assay on HOP-62, > 100 µM (inactive); in the assay with NCI-H522, 72.8 µM (inactive); in the assay with IGROV-1, > 100 µM (inactive). Besides, the GI50 in the assay with Hs-578T is 96.4 µM (inactive); with RXF 393 it was > 100 µM (inactive); with HOP-92, > 100 µM (inactive); in the assay on UACC-257, 52.2 µM (inactive); in the assay on OVCAR-4, > 100 µM (inactive).

`Cc1cn(C2CC(OC(c3ccccc3)(c3ccccc3)c3ccccc3)C(COC(c3ccccc3)(c3ccccc3)c3ccccc3)O2)c(=O)[nH]c1=O` (stereo unspecified): the GI50 with UO-31 was 45.6 µM (inactive); in the assay with ACHN, 68.4 µM (inactive); in the assay on LOX IMVI, 60 µM (inactive); in the assay on TK-10 it was 42.5 µM (inactive); in the assay on CCRF-CEM it was > 100 µM (inactive); with HT-29, 61 µM (inactive). Also, the GI50 was 53.1 µM (inactive) in the assay with HL-60; 16 µM (inactive) in the assay on PC-3; 17.1 µM (inactive) in the assay on HCT-116; 36.8 µM (inactive) in the assay with SK-MEL-28; > 100 µM (inactive) in the assay with HOP-62; > 100 µM (inactive) in the assay on IGROV-1. Also, the GI50 was 38.1 µM (inactive) with Hs-578T; 30 µM (inactive) in the assay on RXF 393; 21.1 µM (inactive) with HOP-92; > 100 µM (inactive) in the assay on UACC-257; > 100 µM (inactive) with OVCAR-4.

With `N#CC(Cc1ccccc1)N(CCC1=CCCCC1)C(c1ccccc1)c1ccccc1` (stereo unspecified), the GI50 with UO-31 is 50.6 µM (inactive); in the assay with NCI-H23 it was 60.1 µM (inactive); with ACHN, > 100 µM (inactive); in the assay with TK-10 it was > 100 µM (inactive); with CCRF-CEM it was 0.456 µM (active); in the assay on HT-29 it was 12.8 µM (inactive). Moreover, the GI50 in the assay on PC-3 was 73.6 µM (inactive); in the assay on HCT-116, 15.8 µM (inactive); with SK-MEL-28, 77.3 µM (inactive); in the assay on HOP-62, > 100 µM (inactive); with RPMI-8226, 33.3 µM (inactive); with NCI-H522, 15.2 µM (inactive). Also, the GI50 in the assay with IGROV-1 was > 100 µM (inactive); in the assay on Hs-578T it was 69.3 µM (inactive); in the assay on RXF 393, 27.9 µM (inactive); with HOP-92 it was 28.1 µM (inactive); with UACC-257, 43 µM (inactive); in the assay on OVCAR-4 it was > 100 µM (inactive).

For the molecule `C[N+]1(C)CC=C(N2CCOCC2)CC1`, the GI50 in the assay with UO-31, in the assay on NCI-H23, in the assay with ACHN, in the assay on LOX IMVI, in the assay on TK-10 and in the assay with CCRF-CEM was > 10 µM (inactive) throughout. The GI50 in the assay with HT-29, in the assay with HL-60, in the assay on PC-3, in the assay on HCT-116, in the assay on SK-MEL-28 and with HOP-62 was > 10 µM (inactive) throughout. The GI50 with RPMI-8226, in the assay with NCI-H522, in the assay with IGROV-1, in the assay with Hs-578T, in the assay with RXF 393 and in the assay with UACC-257 was > 10 µM (inactive) each time. In addition, in the assay on OVCAR-4, the GI50 was > 10 µM (inactive).

Take `Cc1cccc2cc3c(ccc4ccccc43)c[n+]12`: the GI50 was 30.1 µM (inactive) with UO-31; 7.6 µM (inactive) with NCI-H23; 65.3 µM (inactive) in the assay with ACHN; 50 µM (inactive) in the assay with LOX IMVI; > 100 µM (inactive) in the assay with TK-10; 15.5 µM (inactive) with CCRF-CEM. The GI50 with HT-29 was 24.7 µM (inactive); in the assay on HL-60, 48.4 µM (inactive); with PC-3, 30.9 µM (inactive); with HCT-116, 36.9 µM (inactive); with SK-MEL-28 it was 14.7 µM (inactive); in the assay with HOP-62, 7.89 µM (inactive). Besides, the GI50 in the assay on RPMI-8226 was 22.5 µM (inactive); in the assay with NCI-H522, 9.25 µM (inactive); with IGROV-1, 47.1 µM (inactive); with Hs-578T, 5.38 µM (inactive); with RXF 393 it was 53 µM (inactive); in the assay on UACC-257, 14 µM (inactive).

`Cn1ccnc1SC(F)(F)c1nc2ccccc2o1`: the GI50 with UO-31, with NCI-H23, in the assay with ACHN, with TK-10, with CCRF-CEM and with HT-29 was > 100 µM (inactive) throughout. Also, the GI50 in the assay with PC-3, with HCT-116, in the assay on SK-MEL-28, in the assay with HOP-62, with RPMI-8226 and in the assay with NCI-H522 was > 100 µM (inactive) each time. In addition, the GI50 with IGROV-1, with Hs-578T, in the assay with RXF 393, in the assay with HOP-92, in the assay on UACC-257 and with OVCAR-4 was > 100 µM (inactive) throughout.

As to `Cc1ccc(C(=O)Nc2ccc(CP(=O)(O)O)cc2)cc1NC(=O)c1cccc(NC(=O)Nc2cccc(C(=O)Nc3cc(C(=O)Nc4ccc(CP(=O)(O)O)cc4)ccc3C)c2)c1`, the GI50 in the assay with UO-31, with NCI-H23, with ACHN, with LOX IMVI, in the assay with TK-10 and with CCRF-CEM was > 100 µM (inactive) throughout. In addition, the GI50 in the assay with HT-29, in the assay with HL-60, in the assay with PC-3, in the assay on HCT-116, in the assay with SK-MEL-28 and with HOP-62 was > 100 µM (inactive) each time. Also, the GI50 in the assay on RPMI-8226, in the assay on NCI-H522, with IGROV-1, with Hs-578T, in the assay with RXF 393 and in the assay with UACC-257 was > 100 µM (inactive) each time. The GI50 in the assay on OVCAR-4 is > 100 µM (inactive).
